Results from patent US6586461B1, “Prenyl transferase inhibitors” (Wayne State University, priority 1998, dated 2003).
One block for each compound: values may come before it.

Assays:
H-Ras-F cells [1] = experiment: Proliferation of H-Ras-F cells (control experiments); type: cell-based
[2] = system: HPAC (human pancreatic adenocarcinoma cells); experiment: Proliferation of HPAC cells, Trypan Blue exclusion; type: cell-based; settings: 48 hours
Description: The malignant human cell line HPAC (human pancreatic adenocarcinoma cells) was used in this study. The cells were seeded at a concentration of 2×10^5/ml in 24 well culture plate (Costar, Cambridge, Mass). […] Varying amounts of the stock solutions were then used to treat the HPAC cells. The final concentration of the farnesol analogs in the culture plate wells ranged from 0 nM (ethanol-treated control) to 500 nM. The plate was then incubated at 37° C. under a 5% CO2-humidified atmosphere for 48 hours. The total viable cells from each well were determined by Trypan Blue (0.4%) exclusion (Gibco, N.Y.) followed by cell counting.

H-Ras-F cells [3] = experiment: Cell morphology of lovastatin-treated H-Ras-F cells; type: cell-based; settings: 25 μM lovastatin 24 h, then analog 24 h
Description: (§1) It has been well established that levels of lovastatin that completely block the mevalonate pathway result in cell cycle blockade, significant cytotoxicity, and a sharp change in cell appearance to a rounded morphology. The effects of lovastatin on the cell morphology of H-Ras-F and H-Ras-GG cells treated with FPP, GGPP, 3-vFPP, 3-vGGPP, 3-alFPP, and 3-alGGPP were photographed and the results are shown on FIG. 9 (H-Ras-F) and 8 (H-Ras-GG), respectively. The H-Ras-F and H-Ras-GG cells were grown in six-well plates to 70-80% confluence. After treating the cells with lovastatin (25 μM) for 24 hour, the indicated FPP or GGPP analogs (re-suspended in media) were added directly to the cell media. Photographs were taken after an additional 24 hour incubation period.

[4] = system: H-Ras-GG in H-Ras-GG cells; experiment: Subcellular fractionation / Western blot of Ras in lovastatin-treated H-Ras-GG cells; type: cell-based
Description: H-Ras-F (A) or H-Ras-GG (B) cells were treated with 25 μM lovastatin for 24 h after which the indicated FPP or GGPP analogs (resuspended in media) were added directly to the cell media. Following an additional 24 h incubation period, the cells were harvested, lysed and the membranes (M) separated from the cytosol (C). After solubilization of the membrane fraction, Ras protein was immunoprecipitated from both the membrane and cytosolic fractions by the addition of the Y13-259 antibody (OP04 from Oncogene Science). The presence of Ras protein in each fraction was analyzed by Western transfer techniques. Incubation with the primary antibody (pan-ras Ab-2 from Oncogene Science) and an anti-mouse HRP conjugate secondary antibody (Amersham) was employed for detection of the ras protein. Blots were developed using Enhanced Chemiluminescence techniques (Amersham). The technique is described in detail by Scholten, et al., Bioorg. Med. Chem., Vol. 4, pages 1537-1543 (1992).
The selectivity and mechanism of the observed cell growth inhibition was further probed by studying the effects of the 3-vinyl and 3-allyl GGPP analogs on the subcellular distribution of the geranylgeranylated protein variant in H-Ras-GG cells in a manner similar to that described for 3-vFPP and 3-alFPP. The Western blot is shown on FIG. 8. With H-Ras-GG cells, as with H-Ras-F cells, blockage of the mevalonate pathway results in a shift in the subcellular location of the Ras protein from the membrane to the cytosol.

[5] = biological target: recombinant mFTase (affinity purified rat FPTase) (Rattus norvegicus, UniProt Q02293+Q04631); experiment: FTase scintillation proximity assay; type: biochemical; settings: for IC50: recombinant mFTase, tritiated FPP 0.12 μM, peptide 0.1 μM; for FTase/GGTase: selectivity mFTase against mGGTase I
Description: (§2) The method is described in detail in Yokama, et al., J. Biol. Chem., Vol. 272, No. 7, pages 3944-3952 (February 1997). The FTase, tritiated FPP, and the peptide were incubated at 37° C. for 30 minutes in a buffer. After incubation, a stop reagent and streptavidin beads (Amersham) were added. The radioactive product was counted on a Wallac Microbeta 1450 scintillation counter. The kinetic fits were derived from a nonlinear least squares computer fit of the data. The Ki values were determined using the same assay system with varying concentrations of tritiated FPP.

recombinant mGGTase I = recombinant mGGTase I (Homo sapiens, UniProt P49354+P53609); experiment: GGTase I scintillation proximity assay; type: biochemical; settings: tritiated GGPP
Description: as §2
GGTase I values were determined in a similar manner using recombinant mGGTase I, tritiated GGPP, and the peptide Biotin-Aha-Thr-Lys-Cys-Val-Ile-Leu-OH.

H-Ras-GG cells = experiment: Cell morphology of lovastatin-treated H-Ras-GG cells; type: cell-based; settings: 25 μM lovastatin 24 h, then analog 24 h
Description: as §1

[6] = system: NIH 3T3 fibroblasts transfected with a transforming form of c-raf [Raf]; experiment: Soft agar anchorage-independent growth, Raf cells; type: cell-based; settings: 2 weeks, mean of two tests
Description: (§3) Presumably, the non-polar alcohols pass through the cell membrane and are then diphosphorylated by an as yet uncharacterized kinase to FPP or GGPP.
(§4) The 3-substituted analogs were evaluated as inhibitors of the growth of ras-transformed cells by comparing their relative degree of activity against an isogenic panel of transformed cell lines, comprised of NIH 3T3 fibroblasts transfected with either H-Ras(61 L) [H-Ras-F], H-Ras(61 L)CVLL [H-Ras-GG], or a transforming form of c-raf [Raf]. The H-Ras-F, H-Ras-GG, and raf transformed NIH3T3 cell lines have been previously described in Cox, et al., Molecular and Cellular Biology, Vol. 12, No. 6, pages 2606-2615 (1992). The cells were grown prior to plating in Dulbecco's modified Eagle medium supplemented with 10% calf serum and 1% antibiotic/antimycotic at 37° C. and 10% CO2. Experiments were carried out in 6-well dishes in a two layer agar system (0.6% bottom layer and 0.3% top layer). Cells were incorporated into the top layer along with varying concentrations of the compound prepared in ethanol. Compound addition occurred only at the time the cells were seeded. Subsequent incubation was at 37° C. with 10% CO2 for 2 weeks. Colonies were stained with 0.5 ml/well of 1 mg/ml p-iodonitrotetrazolium violet (Sigma) for 24 hours prior to quantitation by image analysis.

[7] = system: NIH 3T3 fibroblasts transfected with H-Ras(61 L)CVLL [H-Ras-GG]; experiment: Soft agar anchorage-independent growth, H-Ras-GG cells; type: cell-based; settings: 2 weeks, read-out: Mean IC50 (±S.E.) H-Ras-GG
Description: as §3, §4

[8] = system: NIH 3T3 fibroblasts transfected with H-Ras(61 L) [H-Ras-F]; experiment: Soft agar anchorage-independent growth, H-Ras-F cells; type: cell-based; settings: soft agar, 2 weeks; read-out: Mean IC50 (±S.E.) H-Ras-F
Description: as §3, §4

H-Ras-F cells [9] = experiment: Incorporation of radiolabel into proteins of H-Ras-F cells; type: cell-based; settings: 5 μM, 18 h, lovastatin-treated H-Ras-F cells
Description: H-Ras-F cells were treated with 25 μM lovastatin for 24 h after which the following were added directly to four samples of the cell media: (1) control-untreated, (2) 3-vinyl-1-[^3H]-farnesol (5 μM, 1.34 μCi/ml), (3) 1-[^3H]-FPP (3 μM, 50 μCi/ml; Amersham), and (4) 1-[^3H]-farnesol (3 μM, 50 μCi/ml; American Radiolabeled Chemicals). […] After drying, the membranes were sprayed with En^3Hance (Amersham) and exposed to film (Hyperfilm MP, Amersham) for a period of time prior to developing (4 days for 1-[^3H]-FPP and 1-[^3H]-farnesol) and 28 days for 3-vinyl-1-[^3H]-farnesol). The exposed films are shown on FIG. 8 where the control and radioactive bands are designated as indicated above.

Compound: 3-Vinyl-7,11-dimethyldodeca-2(Z),6(E),10-trien-1-ol [3-vinyl Farnesol]
Effect on growth of H-Ras-F cells (H-Ras-F cells [1]; concentration not given): complete inhibition of growth
Effect on HPAC cells at 100 nM ([2]; 100 nM): cytostasis
Viable HPAC cell count at 100 nM ([2]; 100 nM, seeded 2×10^5/ml, control well 2.2×10^6 cells): ~2×10^5 /well
Effect on HPAC cells at 500 nM ([2]; listed as 3-Vinylfarnesol): complete cytotoxicity
Effect on HPAC cells at 500 nM ([2]; listed as 3-vinylfarnesol): potently cytotoxic

IC50 [5]: 0.715 µM
FTase/GGTase [5]: 4.3
IC50 (recombinant mGGTase I): 3.05 µM
Compound: 3-vinyl geranylgeranyl diphosphate [Compound 3-vGGPP]
Reversal of rounded morphology of lovastatin-treated H-Ras-F cells (H-Ras-F cells [3]): restore the flattened morphology of cells
Membrane localization of H-Ras-GG ([4]; H-Ras-GG cells, lovastatin-treated): resulted in restoration of the membrane localization of H-Ras-GG
Restoration of flattened morphology of lovastatin-treated H-Ras-GG cells (H-Ras-GG cells): completely restore

Compound: C=C/C(=C\CO)CC/C=C(\C)CC/C=C(\C)CCC=C(C)C [3-vinyl Geranylgeraniol, 3-Vinyl-7,11,15-trimethylhexadeca-2(Z),6(E),10(E),14-tetraen-1-ol]
IC50 [6]: 5.6 µM
Protein geranylgeranylation in cells ([4]; summary statement): restores protein geranylgeranylation in cells
IC50 [7]: 13.9 ± 2.3 µM
IC50 [8]: 18 ± 4.1 µM

Compound: [3H]C(O)C=C(C=C)CCC=C(C)CCC=C(C)C (centres unmarked) [3-vinyl-1-[^3H]-farnesol]
Radiolabel incorporation into protein bands (H-Ras-F cells [9]): the radiolabel migrates with the same protein bands as seen when cells are treated with tritiated farnesol and FPP

IC50 [5]: 0.453 µM
FTase/GGTase [5]: 7.5
IC50 (recombinant mGGTase I): 3.38 µM
Compound: C=CC/C(=C\COP(=O)(O)OP(=O)(O)O)CC/C=C(\C)CC/C=C(\C)CCC=C(C)C [Compound 3-alGGPP, 3-Allyl-7,11,15-trimethylhexadeca-2(Z),6(E),10(E),14-tetraene diphosphate]
Reversal of rounded morphology of lovastatin-treated H-Ras-F cells (H-Ras-F cells [3]): reversion in morphology
Restoration of flattened morphology of lovastatin-treated H-Ras-GG cells (H-Ras-GG cells): partially restore

Compound: CC(C)=CCCC(C)=CCCC(C)=CCO [farnesol, reference compound]
Effect on proliferation of H-Ras-F cells (H-Ras-F cells [1]; 30 μM, data not shown): little effect
Effect on HPAC cells at 500 nM [2]: no effect
